Legend:
[1] = target: T1, HG20 (Homo sapiens, UniProt O75899)
[2] = target: T1, HG20; remark: listed apart in the source

T1 sequence (O75899 52-941): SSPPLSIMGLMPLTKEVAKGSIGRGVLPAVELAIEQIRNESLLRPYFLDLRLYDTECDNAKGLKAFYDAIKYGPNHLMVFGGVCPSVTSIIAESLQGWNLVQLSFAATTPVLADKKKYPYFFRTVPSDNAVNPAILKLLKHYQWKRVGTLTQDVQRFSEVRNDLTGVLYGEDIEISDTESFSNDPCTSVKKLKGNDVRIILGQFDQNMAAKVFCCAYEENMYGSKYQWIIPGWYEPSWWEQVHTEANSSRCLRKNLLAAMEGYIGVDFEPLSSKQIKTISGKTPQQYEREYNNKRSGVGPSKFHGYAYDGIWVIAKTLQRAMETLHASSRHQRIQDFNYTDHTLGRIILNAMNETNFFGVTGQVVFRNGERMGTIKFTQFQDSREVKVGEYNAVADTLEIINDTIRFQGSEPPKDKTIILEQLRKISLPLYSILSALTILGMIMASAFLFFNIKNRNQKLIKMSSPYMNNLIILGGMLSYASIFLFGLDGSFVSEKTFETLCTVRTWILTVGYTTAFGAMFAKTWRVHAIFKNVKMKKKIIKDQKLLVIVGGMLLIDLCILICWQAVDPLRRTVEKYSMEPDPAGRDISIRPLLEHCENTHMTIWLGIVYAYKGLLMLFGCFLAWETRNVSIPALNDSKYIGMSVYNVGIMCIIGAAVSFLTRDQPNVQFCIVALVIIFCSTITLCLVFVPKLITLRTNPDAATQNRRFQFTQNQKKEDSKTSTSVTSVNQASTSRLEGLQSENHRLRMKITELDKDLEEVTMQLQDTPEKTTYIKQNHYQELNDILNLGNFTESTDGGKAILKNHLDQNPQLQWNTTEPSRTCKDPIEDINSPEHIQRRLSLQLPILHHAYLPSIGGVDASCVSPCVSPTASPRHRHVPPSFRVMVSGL

N[C@@H](CCC(=O)O)C(=O)O [L-Glutamate, (L)-glutamic acid]
activity in Xenopus melanophore functional assay [1]: no activity
pigment aggregation or dispersion response [1]: no pigment aggregation or dispersion response
activity in Xenopus oocyte functional assay [2]: no activity

NC/C=C\C(=O)O [cis-4-aminocrotonic acid]
pigment aggregation or dispersion response [1]: no pigment aggregation or dispersion response

O=S(=O)(O)C1CCNCC1 [piperidine-4-sulfonic acid]
pigment aggregation or dispersion response [1]: no pigment aggregation or dispersion response

(−)Baclofen
activity in Xenopus melanophore functional assay [1]: no activity
pigment aggregation or dispersion response [1]: no pigment aggregation or dispersion response
activity in Xenopus oocyte functional assay [2]: no activity
